Legend:
[1] = tested on: AD38 cells; experiment: Viability of AD38 cells (Promega CellTiter-Glo) at the end of compound treatment; format: cell-based; conditions: 10 μM compound, 6 days, luminescence normalized against DMSO control wells (controls being 100%)
Summary of the method: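 Luminescent CellTiter-Glo read-out, taken after supernatant was swapped for tetracycline-free 2% FBS medium with 1% DMSO, gave percent viability relative to DMSO controls set at 100%. Cells were plated at 50,000/well and exposed to compound, added as a 10× stock in 10% DMSO, for 6 days at 37° C.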

[2] = tested on: HBV viral production in AD38 cells; experiment: Viral load production in AD38 cells by quantitative PCR of the HBV core sequence in supernatant; format: cell-based; conditions: Hepatitis B virus, 144 h; 10 μM compound, 6 days at 37° C., viral load in supernatant compared against DMSO control wells; read-out: AD38 Viral Load (CpAM/DMSO %) at 10 μM
Summary of the method: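 Read-out is TaqMan qPCR of the HBV core region in supernatant, quantitated against standards and referenced to DMSO controls (≥3 per plate). Cells: AD38 at 50,000/well, exposed to compound (added as 10× stock in 10% DMSO) for 6 days at 37° C.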

Row | Compound | AD38 Viability Normalized Result (CPAM/DMSO %) at 10 μM [1] | activity at 10 µM [2]
1 | Cc1c(C(=O)NCCc2cccnc2)ccc2c1NC(=O)c1ccccc1S2 [Compound 1467] | 92% | 1%
2 | O=C(NCCc1cccc(C(F)(F)F)c1)c1ccc2c(c1)NC(=O)c1ccccc1S2 [Compound 1195] | 48% | 0%
3 | O=C(NCCc1cncs1)c1ccc2c(c1)NC(=O)c1ccccc1[S+]2[O-] (stereo not shown) [Compound 1527] | 116% | 19%
4 | O=C(NCCc1cncnc1)c1ccc2c(c1)NC(=O)c1cc(F)ccc1S2 [Compound 1312] | 83% | 5%
5 | O=C(Nc1cccnc1)c1ccc2c(c1)NC(=O)c1ccccc1S2 [Compound 1231] | 93% | 12%
6 | CCCCNC(=O)c1ccc2c(c1)NC(=O)c1ccccc1S2 [Compound 1123] | 95% | 62%
7 | O=C(Nc1ncc(-c2ccccc2)o1)c1ccc2c(c1)NC(=O)c1cc(F)ccc1S2 [Compound 1480] | 95% | 72%
8 | O=C(NCc1cnc(-c2ccccc2)s1)c1ccc2c(c1)NC(=O)c1ccccc1S2 [Compound 1590] | 96% | 1%
9 | CC(C)NS(=O)(=O)c1ccc2c(c1)NC(=O)c1ccccc1S2 [Compound 1450] | 94% | 73%
10 | O=C(Nc1cccc(-c2ccc(O)cc2)c1)c1ccc2c(c1)NC(=O)c1cc(F)ccc1S2 [Compound 1453] | 97% | 48%
11 | O=C(NCc1cncs1)c1ccc2c(c1)NC(=O)c1c(F)cccc1S2 [Compound 1541] | 117% | 11%
12 | O=C(NCCC1CCCCC1)c1ccc2c(c1)NC(=O)c1cc(Cl)ccc1S2 [Compound 1235] | 61% | 6%
13 | CCOC(=O)C(NC(=O)c1ccc2c(c1)NC(=O)c1cc(F)ccc1S2)c1ccncc1 (stereo not shown) [Compound 1405] | 94% | 14%
14 | O=C(NCc1cncs1)c1ccc2c(c1)NC(=O)c1ccccc1S2(=O)=O [Compound 1455] | 89% | 3%
15 | O=C(NCCC12CC3CC(CC(C3)C1)C2)c1ccc2c(c1)NC(=O)c1ccccc1S2 [Compound 1170] | 95% | 1%
16 | O=C(NCc1cncnc1)c1ccc2c(c1)NC(=O)c1ccccc1S2 [Compound 1233] | 93% | 1%
17 | O=C1Nc2cc(S(=O)(=O)Nc3ccc(F)cc3F)ccc2Sc2ccccc21 [Compound 1526] | 92% | 57%
18 | CCOc1ccccc1CCNC(=O)c1ccc2c(c1)NC(=O)c1ccccc1S2 [Compound 1156] | 106% | 16%
19 | O=C(NCCOc1ccc(F)cc1)c1ccc2c(c1)NC(=O)c1ccccc1S2 [Compound 1208] | 103% | 11%
20 | O=C(NCCO)c1ccc2c(c1)NC(=O)c1ccccc1S2 [Compound 1172] | 107% | 51%
21 | O=C(NCc1cncnc1)c1ccc2c(c1)NC(=O)c1ccccc1O2 [Compound 1595] | 108% | 3%
22 | O=C1Nc2cc(S(=O)(=O)NCCc3cncnc3)ccc2Sc2ccccc21 [Compound 1597] | 87% | 64%
23 | COc1ccccc1CNC(=O)c1ccc2c(c1)NC(=O)c1ccccc1S2 [Compound 1159] | 92% | 8%
24 | O=C(Nc1ncc(Cl)s1)c1ccc2c(c1)NC(=O)c1cc(F)ccc1S2 [Compound 1443] | 95% | 64%
25 | O=C(Nc1ccncc1)c1ccc2c(c1)NC(=O)c1ccc(F)cc1S2 [Compound 1366] | 93% | 12%
26 | O=C(NCCCOc1ccccc1)c1ccc2c(c1)NC(=O)c1ccccc1S2 [Compound 1241] | 86% | 12%
